Patent publication US6541256B1, “Growth medium for human corneal endothelial cells” (The Schepens Eye Research Institute, Inc., priority 1999, dated 2003)

Tested on: endothelial "ionic pump"
Test: pump function tested by pachymetry of transplanted corneas after exposure to ouabain
Parameters: species or system human
Conditions: 200 μM ouabain
Protocol: Corneas from donors (52-80 years old) were obtained from an eye bank. Descemet's membrane was stripped and endothelial cells were removed by mild EDTA treatment. Cells, cultured in the preferred formulation of the culture medium, were identified by RT-PCR of collagen type VIII and keratin-12 and by morphology. Cells (2.5×10^5) were seeded onto denuded Descemet's membrane from a second donor cornea. The cornea was incubated in culture for up to 1 month. Cell-cell contact of transplanted cells was evaluated by ZO-1 staining. Morphology and ultrastructure were examined by transmission electron microscopy. Pump function was tested by pachymetry after exposure to 200 μM ouabain. Cultured cells were identified as corneal endothelium by characteristic mRNA expression and morphology. The success rate of primary cultures, obtained from corneas stored <5 days after death, was about 99%. […] With time, cell-substrate adhesion, cell-cell contact, and lateral interdigitation increased, and the cells rearranged to form a monolayer. When the endothelium is functional, it draws water out of the corneal stroma, resulting in a thin cornea. Ouabain, a cardiac glycoside, inhibits the function of the endothelial “ionic pump”, causing an increase in corneal thickness. […] Referring to FIG. 4, pachymetry of transplanted corneas after ouabain treatment is graphically depicted. […]

## C[C@@H]1O[C@@H](O[C@H]2C[C@@H](O)[C@]3(CO)[C@H]4[C@H](O)C[C@]5(C)[C@@H](C6=CC(=O)OC6)CC[C@]5(O)[C@@H]4CC[C@]3(O)C2)[C@H](O)[C@H](O)[C@H]1O [ouabain]
Transplanted corneas after 14 days in organ culture
  period over which corneal thickness increased to maximum: 2 to 3 h
Transplants maintained 14 days in organ culture, 5 corneas
  corneal thickness measured by pachymetry (FIG. 4): increased to a level equal to that of corneas denuded of endothelium
